Where two headings read alike, the source gives them in different places.
Key:
NDM-1 = biological target: T1, NDM-1 (Klebsiella pneumoniae, UniProt C7C422); experiment: In vitro inhibition assay (IPM hydrolysis); type: biochemical; details: even at high doses (100 µM)
T1 construct: made in house
Description: (§1) MBLs were incubated with HHIAs in 20 mM HEPES buffer (pH 7.5) containing 200 mM NaCl and 50 µg/mL BSA at 30°C for 5 min. IPM was added at a concentration of 100 µM, and the rate of IPM hydrolysis was monitored at 297 nm. The initial velocity (v0) rates were plotted against HHIA’s logarithmic concentrations, and the data were fitted to a four-parameter variable slope to obtain the half-maximal inhibitor concentration (IC50) values using GraphPad Prism 9 software (GraphPad Software). The inhibition constant (Ki) was determined as follows: v0 was measured after varying the concentrations of IPM and HHIAs, and inverse v0 (1/v0) was plotted against the inverse IPM concentration [1/(IPM)]. Lineweaver–Burk plots were created to obtain Ki values under the competitive inhibition model using the SigmaPlot 14 suite (Hulinks).

IMP-1 = biological target: T2, IMP-1 (Serratia marcescens, UniProt P52699); experiment: In vitro inhibition assay (IPM hydrolysis); type: biochemical; details: for Inhibition mode for IMP-1: Lineweaver–Burk plots
T2 construct: made in house
T2 sequence (P52699 19-246, looked up, species assumed): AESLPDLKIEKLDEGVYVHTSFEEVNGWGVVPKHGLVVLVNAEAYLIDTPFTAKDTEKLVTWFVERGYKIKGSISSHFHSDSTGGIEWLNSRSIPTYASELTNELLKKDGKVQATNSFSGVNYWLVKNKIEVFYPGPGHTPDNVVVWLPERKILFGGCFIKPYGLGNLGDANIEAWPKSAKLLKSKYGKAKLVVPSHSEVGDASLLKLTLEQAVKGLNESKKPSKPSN
Description: as §1

VIM-2 = biological target: T3, VIM-2 (Escherichia coli, UniProt Q5U7L7); experiment: In vitro inhibition assay (IPM hydrolysis); type: biochemical
T3 construct: made in house
Description: as §1

IMP-6 = biological target: T4, IMP-6 (Serratia marcescens, UniProt P52699, S214G); experiment: In vitro inhibition assay (IPM hydrolysis); type: biochemical
T4 construct: made in house
T4 sequence (P52699 19-246 S214G): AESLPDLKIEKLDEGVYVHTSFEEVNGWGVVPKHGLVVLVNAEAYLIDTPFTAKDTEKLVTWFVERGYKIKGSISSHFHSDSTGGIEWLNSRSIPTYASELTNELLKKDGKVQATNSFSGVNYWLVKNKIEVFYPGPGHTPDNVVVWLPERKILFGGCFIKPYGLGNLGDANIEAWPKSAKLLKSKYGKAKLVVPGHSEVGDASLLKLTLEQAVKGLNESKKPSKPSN
Description: as §1

SMB-1 = experiment: In vitro inhibition assay (IPM hydrolysis); type: biochemical; details: even at high doses (100 µM)
Description: as §1

[1] = tested on: P. penneri E11-M475 (IMP-1); experiment: Susceptibility test, clinical isolate; type: cell-based; details: Proteus penneri
Description: (§2) Susceptibility testing, based on the microdilution method, was performed according to the guidelines of the Clinical and Laboratory Standards Institute ([36]).

[2] = tested on: E. cloacae NUBL-5 (IMP-1); experiment: Susceptibility test, clinical isolate; type: cell-based; details: Enterobacter cloacae
Description: as §2

E. coli NUBL-22 (IMP-6) = experiment: Susceptibility test, clinical isolate; type: cell-based; details: Escherichia coli
Description: as §2

E. coli 426 (IMP-1) = experiment: Susceptibility test, clinical isolate; type: cell-based; details: Escherichia coli
Description: as §2

[3] = tested on: K. pneumoniae AR0076 (VIM-1); experiment: Susceptibility test, clinical isolate; type: cell-based; details: Klebsiella pneumoniae
Description: as §2

[4] = tested on: K. pneumoniae NUBL-23 (IMP-6); experiment: Susceptibility test, clinical isolate; type: cell-based; details: Klebsiella pneumoniae
Description: as §2

E. coli 465 (IMP-1) = experiment: Susceptibility test, clinical isolate; type: cell-based; details: Escherichia coli
Description: as §2

[5] = tested on: K. pneumoniae MS5674 (NDM-1/VIM-1); experiment: Susceptibility test, clinical isolate; type: cell-based; details: Klebsiella pneumoniae
Description: as §2

E. coli NUBL-24 (IMP-1) = experiment: Susceptibility test, clinical isolate; type: cell-based; details: Escherichia coli
Description: as §2

[6] = tested on: K. oxytoca NUBL-827 (IMP-1); experiment: Susceptibility test, clinical isolate; type: cell-based; details: Klebsiella oxytoca
Description: as §2

[7] = tested on: K. pneumoniae NUBL-8 (IMP-1); experiment: Susceptibility test, clinical isolate; type: cell-based; details: Klebsiella pneumoniae
Description: as §2

[8] = tested on: K. pneumoniae AR0034 (IMP-4); experiment: Susceptibility test, clinical isolate; type: cell-based; details: Klebsiella pneumoniae
Description: as §2

[9] = +HHIA 6.25 µg/mL, read-out: IPM MIC
[10] = +HHIA 6.25 μg/mL, read-out: MPM MIC
[11] = +HHIA 25 µg/mL, read-out: IPM MIC
[12] = +HHIA 25 μg/mL, read-out: MPM MIC
[13] = +HHIA 100 µg/mL, read-out: IPM MIC
[14] = +HHIA 100 μg/mL, read-out: MPM MIC
[15] = +HHIA 6.25 µg/mL, E. coli NUBL-24 (IMP-1), read-out: IPM MIC
[16] = +HHIA 6.25 μg/mL, E. coli NUBL-24 (IMP-1), read-out: MPM MIC
[17] = +HHIA 25 µg/mL, E. coli NUBL-24 (IMP-1), read-out: IPM MIC
[18] = +HHIA 25 μg/mL, E. coli NUBL-24 (IMP-1), read-out: MPM MIC
[19] = +HHIA 100 µg/mL, E. coli NUBL-24 (IMP-1), read-out: IPM MIC
[20] = +HHIA 6.25 µg/mL, K. pneumoniae AR0034 (IMP-4), read-out: IPM MIC
[21] = +HHIA 6.25 μg/mL, K. pneumoniae AR0034 (IMP-4), read-out: MPM MIC
[22] = +HHIA 25 µg/mL, K. pneumoniae AR0034 (IMP-4), read-out: IPM MIC
[23] = +HHIA 25 μg/mL, K. pneumoniae AR0034 (IMP-4), read-out: MPM MIC
[24] = +HHIA 100 µg/mL, K. pneumoniae AR0034 (IMP-4), read-out: IPM MIC

T1 sequence (C7C422 29-270 limits assumed): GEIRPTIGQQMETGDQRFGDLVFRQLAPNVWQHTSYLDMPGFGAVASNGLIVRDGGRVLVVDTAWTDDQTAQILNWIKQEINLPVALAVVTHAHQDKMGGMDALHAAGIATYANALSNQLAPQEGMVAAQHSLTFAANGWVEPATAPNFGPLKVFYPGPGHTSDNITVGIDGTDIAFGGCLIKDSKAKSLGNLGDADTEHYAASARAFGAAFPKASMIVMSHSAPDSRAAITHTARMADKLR

C=C(C(=O)O)C(CCCCC(C)O)C(=O)O (centres unmarked) [9-HHIA, 9-hydroxyhexylitaconic acid]
4 µg/mL: MIC [2, 11] | MIC (E. coli NUBL-22 (IMP-6); [14]) | MIC (E. coli 426 (IMP-1); [11]) | MIC (E. coli 426 (IMP-1); [12]) | MIC (E. coli NUBL-24 (IMP-1); [15]) | MIC (E. coli NUBL-24 (IMP-1); [16]) | MIC [6, 11] | MIC [6, 14] | MIC [7, 11] | MIC [7, 12] | MIC [8, 20]
8 µg/mL: MIC [2, 9] | MIC [2, 14] | MIC (E. coli 426 (IMP-1); [9]) | MIC (E. coli 426 (IMP-1); [10]) | MIC (E. coli 465 (IMP-1); [11]) | MIC (E. coli 465 (IMP-1); [12]) | MIC [6, 9] | MIC [8, 21]
1 µg/mL: MIC (E. coli NUBL-22 (IMP-6); [11]) | MIC (E. coli NUBL-24 (IMP-1); [19]) | MIC [7, 13]
> 64 µg/mL: MIC [1, 9] | MIC [1, 10] | MIC [1, 11] | MIC [1, 12] | MIC [1, 13] | MIC [5, 10] | MIC [5, 12]
competitive inhibitors: Inhibition mode for IMP-1 (IMP-1)
32 µg/mL: MIC [1, 14] | MIC [3, 9] | MIC [3, 10] | MIC [3, 11] | MIC [3, 12] | MIC [3, 13] | MIC [3, 14] | MIC [4, 10] | MIC (E. coli 465 (IMP-1); [10]) | MIC [5, 11] | MIC [5, 13] | MIC [6, 10]
27.8 µM: Ki (IMP-6)
2 µg/mL: MIC [2, 13] | MIC (E. coli NUBL-22 (IMP-6); [9]) | MIC (E. coli 426 (IMP-1); [13]) | MIC (E. coli 465 (IMP-1); [13]) | MIC (E. coli NUBL-24 (IMP-1); [17]) | MIC [6, 13] | MIC [7, 9] | MIC [8, 22] | MIC [8, 23]
did not inhibit: Inhibition of hydrolyzing activity of NDM-1 (NDM-1) | Inhibition of hydrolyzing activity of SMB-1 (SMB-1)
11.1 µM: Ki (IMP-1)
16 µg/mL: MIC [2, 10] | MIC [2, 12] | MIC (E. coli NUBL-22 (IMP-6); [10]) | MIC (E. coli NUBL-22 (IMP-6); [12]) | MIC [4, 12] | MIC (E. coli 465 (IMP-1); [9]) | MIC [6, 12] | MIC [7, 10]
0.5 µg/mL: MIC (E. coli NUBL-22 (IMP-6); [13]) | MIC [4, 9] | MIC [4, 11] | MIC [4, 13] | MIC [4, 14] | MIC (E. coli 465 (IMP-1); [14]) | MIC (E. coli NUBL-24 (IMP-1); [18]) | MIC [7, 14] | MIC [8, 24]
50.5 µM: IC50 (IMP-1)
64 µg/mL: MIC [5, 9] | MIC [5, 14]
moderate: Inhibitory activity against VIM-2 (VIM-2)
0.25 µg/mL: MIC (E. coli 426 (IMP-1); [14]) | MIC ([8]; +HHIA 100 μg/mL, K. pneumoniae AR0034 (IMP-4), read-out: MPM MIC)
0.125 µg/mL: MIC (E. coli NUBL-24 (IMP-1); read-out: MPM MIC)

C=C(C(=O)O)C(CCCCCCO)C(=O)O (centres unmarked) [10-HHIA, 10-hydroxyhexylitaconic acid]
2 µg/mL: MIC (E. coli 426 (IMP-1); [13]) | MIC [4, 12] | MIC [6, 13] | MIC [7, 9] | MIC [7, 12] | MIC [8, 20]
competitive inhibitors: Inhibition mode for IMP-1 (IMP-1)
4 µg/mL: MIC [2, 11] | MIC (E. coli 426 (IMP-1); [11]) | MIC (E. coli 465 (IMP-1); [11]) | MIC (E. coli 465 (IMP-1); [12]) | MIC (E. coli NUBL-24 (IMP-1); [15]) | MIC (E. coli NUBL-24 (IMP-1); [16]) | MIC [6, 11] | MIC [8, 21]
0.25 µg/mL: MIC (E. coli 426 (IMP-1); [14]) | MIC [4, 11] | MIC [4, 14] | MIC (E. coli 465 (IMP-1); [14]) | MIC [7, 14]
0.5 µg/mL: MIC (E. coli NUBL-22 (IMP-6); [11]) | MIC (E. coli NUBL-22 (IMP-6); [13]) | MIC [4, 9] | MIC [4, 13] | MIC (E. coli NUBL-24 (IMP-1); [18]) | MIC [7, 13] | MIC [8, 23] | MIC [8, 24]
did not inhibit: Inhibition of hydrolyzing activity of NDM-1 (NDM-1) | Inhibition of hydrolyzing activity of SMB-1 (SMB-1)
5 µM: Ki (IMP-1)
1 µg/mL: MIC [2, 13] | MIC (E. coli NUBL-22 (IMP-6); [9]) | MIC (E. coli NUBL-22 (IMP-6); [14]) | MIC (E. coli 426 (IMP-1); [12]) | MIC (E. coli 465 (IMP-1); [13]) | MIC (E. coli NUBL-24 (IMP-1); [17]) | MIC (E. coli NUBL-24 (IMP-1); [19]) | MIC [6, 14] | MIC [7, 11] | MIC [8, 22]
moderate: Inhibitory activity against VIM-2 (VIM-2)
32 µg/mL: MIC [3, 9] | MIC [3, 10] | MIC [3, 11] | MIC [3, 12] | MIC [3, 14] | MIC [4, 10] | MIC [5, 9] | MIC [5, 13]
8 µg/mL: MIC [2, 9] | MIC [2, 14] | MIC (E. coli NUBL-22 (IMP-6); [12]) | MIC (E. coli 426 (IMP-1); [9]) | MIC (E. coli 426 (IMP-1); [10]) | MIC [6, 9] | MIC [6, 12] | MIC [7, 10]
0.125 µg/mL: MIC (E. coli NUBL-24 (IMP-1); read-out: MPM MIC) | MIC ([8]; read-out: MPM MIC)
31.6 µM: IC50 (IMP-1)
64 µg/mL: MIC [1, 13] | MIC [5, 11] | MIC [5, 14]
> 64 µg/mL: MIC [1, 9] | MIC [1, 10] | MIC [1, 11] | MIC [1, 12] | MIC [5, 10] | MIC [5, 12]
16 µg/mL: MIC [1, 14] | MIC [2, 10] | MIC [2, 12] | MIC (E. coli NUBL-22 (IMP-6); [10]) | MIC [3, 13] | MIC (E. coli 465 (IMP-1); [9]) | MIC (E. coli 465 (IMP-1); [10]) | MIC [6, 10]
21 µM: Ki (IMP-6)

Reference: article PMC10913484, “Hydroxyhexylitaconic acids as potent IMP-type metallo-β-lactamase inhibitors for controlling carbapenem resistance in Enterobacterales” (Microbiology Spectrum, 2024)
